Laboratory results as given in publication PMC12298827, “Subchronic Toxicities of Four Per- and Polyfluoroalkyl Substances (PFASs) by Oral Exposure in Sprague–Dawley Rats” (Toxics, 2025).

System: male and female Sprague–Dawley rats
Test: 90-day subchronic oral gavage toxicity study
Assay type: in vivo, rat
Description: Subchronic (90-day) studies were performed in accordance with current U.S. EPA’s Toxic Substances Control Act Good Laboratory Practice (GLP) Standards, with the following two general exceptions to the GLP guidelines: Analysis of the dose formulations was conducted according to RTI-approved Standard Operating Procedures, and corn oil (the vehicle) was not characterized (certificate of analysis from the vendor is available in the appendices to the final reports). Male and female Sprague–Dawley rats (five dose levels plus a control, n = 10/sex/dose group, corn oil vehicle dose volume of 3 mL/kg; oral gavage) were used in these studies, and the rats were euthanized on SD 91. The dose levels for PFHI were 0, 12.5, 25, 50, 100, and 200 mg/kg-day. The dose levels for MHFPK were 0, 18.8, 37.5, 75, 150, and 300 mg/kg-day. The dose levels for PFNAC were 0, 0.1, 0.3, 1.0, 3.0, and 10 mg/kg-day for male rats and 0, 0.3, 1.0, 3.0, 10, and 30 mg/kg-day for female rats. For CTFPA, the dose levels were 0, 1.9, 3.8. 7.5, 15, and 30 mg/kg-day for male rats and 0, 6.3, 12.5, 25, 50, and 100 mg/kg-day for female rats. For each PFAS, three batches of dosing solution were prepared. The time between the batch preparation of the dosing solutions ranged between 29 and 39 days. Blood samples were collected from all the rats at termination for serum chemistry, hematology, coagulation, and the analysis of the parent PFAS chemical in the plasma. In vivo data collection and further detail on the endpoints examined postmortem are described below.
The rats were observed twice daily for morbidity and mortality throughout the study period. At least once prior to randomization to test groups and weekly thereafter, the rats were physically examined, and bodyweights were obtained. Feed consumption was quantified weekly starting on SD 1.
Neurotoxicity was evaluated using the functional observational battery (FOB) and measuring locomotor activity (LMA) 2–4 h post dosing on SDs 78–80 and 80–84, respectively. For both the 14- and 90-day studies, an ophthalmologic examination was conducted prior to randomization and near the end of the study, using indirect ophthalmoscopy and slit–lamp biomicroscopy (as needed) after the administration of a mydriatic solution.
Hematology, biochemistry, and coagulation endpoints were measured at the termination of the study. A Siemens Advia 2120i hematology analyzer (Siemens Healthineers, Erlangen, Germany) was used to measure (or calculate) the parameters related to the complete blood count, leukocyte differential count, and reticulocyte count. The hematology parameters are listed and described in Table 2. The prothrombin time […] and activated partial thromboplastin time (APTT) were measured using an Instrumentation Laboratory (Bedford, MA, USA) ACL Elite Pro coagulation analyzer (laser–nephelometric centrifugal method).
At necropsy, the rats were visually examined for external abnormalities and organ weights (absolute and relative to the BW and brain weight), which were recorded (paired organs weighed together). The tissues were preserved in 10% neutral buffered formalin (NBF), except for the ocular tissues, testes, and epididymides, which were preserved in modified Davidson’s fixative and later transferred to 10% NBF. Bone marrow smears were prepared from the femurs, and the slides were air-dried, fixed in methanol, stained, and stored at room temperature for possible future evaluation. The preserved tissues were embedded in paraffin, sectioned, stained with hematoxylin and eosin, and examined by a board-certified veterinary pathologist.
Statistical analysis was performed using Provantis™ Version 10 or greater (Instem LSS, Limited; Stone, Staffordshire, UK). Differences among the treatment groups compared to the control were evaluated using one-way analysis of variance (ANOVA) if the underlying assumptions of a normal distribution (Shapiro–Wilk test) and the homogeneity of the variance (Levene’s test) were satisfied. […]

FC(F)(F)C(F)(F)C(F)(F)C(F)(F)CCI [PFHI, 1H,1H,2H,2H-Perfluorohexyl iodide]
Liver/Brain Weight (female, 200 mg/kg-day): 481%
MPV (female, 200 mg/kg-day): 7.68 ± 0.44 fL
PT (female, 200 mg/kg-day): 13.98 s
Total BW change (female, 200 mg/kg-day): 108.57 g
Total Food Consumed (female, 200 mg/kg-day): 1566 g
BMD10, absolute kidney weight increase (male): 122 mg/kg-day
BMD10, relative kidney weight increase (male): 69.7 mg/kg-day
BMDL, absolute kidney weight increase (male): 83.8 mg/kg-day
BMDL, relative kidney weight increase (male): 56.6 mg/kg-day
LOEL, absolute kidney weight increase (male): 200 mg/kg-day
LOEL, absolute liver weight increase (male): 100 mg/kg-day
LOEL, relative kidney weight increase (male): 100 mg/kg-day
LOEL, relative liver weight increase (male): 25 mg/kg-day
NOEL, absolute kidney weight increase (male): 100 mg/kg-day
NOEL, absolute liver weight increase (male): 50 mg/kg-day
NOEL, relative kidney weight increase (male): 50 mg/kg-day
NOEL, relative liver weight increase (male): 12.5 mg/kg-day
% BW Gain (male, 12.5 mg/kg-day): 114.45%
% Diff, % BW Gain (male, 12.5 mg/kg-day): 0.87%
% Diff, Total BW change (male, 12.5 mg/kg-day): -1.78%
% Diff, Total Food Consumed (male, 12.5 mg/kg-day): -6.69%
A/G (male, 12.5 mg/kg-day): 0.91±0.04 ratio
ALB (male, 12.5 mg/kg-day): 3.42 ± 0.25 g/dL
ALPi (male, 12.5 mg/kg-day): 102.9±14.1 U/L
APTT (male, 12.5 mg/kg-day): 23.37 s
BUN (male, 12.5 mg/kg-day): 14.8 ± 2.0 mg/dL
CHOL (male, 12.5 mg/kg-day): 87.5 ± 9.2 mg/dL
GLOB (male, 12.5 mg/kg-day): 3.77 ± 0.18 g/dL
GLUC (male, 12.5 mg/kg-day): 199.1 ± 29.5 mg/dL
HCT (male, 12.5 mg/kg-day): 51.12±1.63%
HGB (male, 12.5 mg/kg-day): 15.92 ± 0.40 g/dL
Kidney Weight (male, 12.5 mg/kg-day): 3.04 g
Kidney/Body Weight (male, 12.5 mg/kg-day): 0.51%
Kidney/Brain Weight (male, 12.5 mg/kg-day): 140%
Liver Weight (male, 12.5 mg/kg-day): 15.35 g
Liver/Body Weight (male, 12.5 mg/kg-day): 2.59%
Liver/Brain Weight (male, 12.5 mg/kg-day): 706%
MPV (male, 12.5 mg/kg-day): 7.20 ± 0.26 fL
PT (male, 12.5 mg/kg-day): 14.91 s
Total BW change (male, 12.5 mg/kg-day): 319.83 g
Total Food Consumed (male, 12.5 mg/kg-day): 2217 g
% BW Gain (male, 25 mg/kg-day): 112.88%
% Diff, % BW Gain (male, 25 mg/kg-day): -0.52%
% Diff, Total BW change (male, 25 mg/kg-day): -1.33%
% Diff, Total Food Consumed (male, 25 mg/kg-day): -4.60%
A/G (male, 25 mg/kg-day): 0.88±0.10 ratio
ALB (male, 25 mg/kg-day): 3.35 ± 0.14 g/dL
ALPi (male, 25 mg/kg-day): 112.3±29.5 U/L
APTT (male, 25 mg/kg-day): 29.06 s
BUN (male, 25 mg/kg-day): 15.3 ± 2.1 mg/dL
CHOL (male, 25 mg/kg-day): 101.5 ± 15.8 mg/dL
GLOB (male, 25 mg/kg-day): 3.84 ± 0.36 g/dL
GLUC (male, 25 mg/kg-day): 204.5 ± 34.6 mg/dL
HCT (male, 25 mg/kg-day): 50.59±1.92%
HGB (male, 25 mg/kg-day): 15.67 ± 0.55 g/dL
Kidney Weight (male, 25 mg/kg-day): 3.20 g
Kidney/Body Weight (male, 25 mg/kg-day): 0.54%
Kidney/Brain Weight (male, 25 mg/kg-day): 147%
Liver Weight (male, 25 mg/kg-day): 16.98 g
Liver/Body Weight (male, 25 mg/kg-day): 2.85%
Liver/Brain Weight (male, 25 mg/kg-day): 780%
MPV (male, 25 mg/kg-day): 7.13 ± 0.21 fL
PT (male, 25 mg/kg-day): 14.69 s
Total BW change (male, 25 mg/kg-day): 321.29 g
Total Food Consumed (male, 25 mg/kg-day): 2266 g
% BW Gain (male, 50 mg/kg-day): 108.23%
% Diff, % BW Gain (male, 50 mg/kg-day): -4.61%
% Diff, Total BW change (male, 50 mg/kg-day): -5.67%
% Diff, Total Food Consumed (male, 50 mg/kg-day): -6.15%
A/G (male, 50 mg/kg-day): 0.91±0.04 ratio
ALB (male, 50 mg/kg-day): 3.41 ± 0.12 g/dL
ALPi (male, 50 mg/kg-day): 103.3±31.6 U/L
APTT (male, 50 mg/kg-day): 20.03 s
BUN (male, 50 mg/kg-day): 15.4 ± 1.8 mg/dL
CHOL (male, 50 mg/kg-day): 100.2 ± 18.8 mg/dL
GLOB (male, 50 mg/kg-day): 3.74 ± 0.13 g/dL
GLUC (male, 50 mg/kg-day): 196.8 ± 40.7 mg/dL
HCT (male, 50 mg/kg-day): 49.78±1.69%
HGB (male, 50 mg/kg-day): 15.53 ± 0.59 g/dL
Kidney Weight (male, 50 mg/kg-day): 3.25 g
Kidney/Body Weight (male, 50 mg/kg-day): 0.56%
Kidney/Brain Weight (male, 50 mg/kg-day): 143.1%
Liver Weight (male, 50 mg/kg-day): 17.05 g
Liver/Body Weight (male, 50 mg/kg-day): 2.92%
Liver/Brain Weight (male, 50 mg/kg-day): 754%
MPV (male, 50 mg/kg-day): 7.30 ± 0.36 fL
PT (male, 50 mg/kg-day): 15.14 s
Total BW change (male, 50 mg/kg-day): 307.16 g
Total Food Consumed (male, 50 mg/kg-day): 2229 g
% BW Gain (male, 100 mg/kg-day): 106.43%
% Diff, % BW Gain (male, 100 mg/kg-day): -6.20%
% Diff, Total BW change (male, 100 mg/kg-day): -9.44%
% Diff, Total Food Consumed (male, 100 mg/kg-day): -5.67%
A/G (male, 100 mg/kg-day): 0.87±0.20 ratio
ALB (male, 100 mg/kg-day): 3.34 ± 0.53 g/dL
ALPi (male, 100 mg/kg-day): 103.2±19.1 U/L
APTT (male, 100 mg/kg-day): 26.73 s
BUN (male, 100 mg/kg-day): 15.7 ± 3.2 mg/dL
CHOL (male, 100 mg/kg-day): 112.4 ± 25.0 mg/dL
GLOB (male, 100 mg/kg-day): 3.97 ± 0.63 g/dL
GLUC (male, 100 mg/kg-day): 171.8 ± 39.0 mg/dL
HCT (male, 100 mg/kg-day): 50.60±2.40%
HGB (male, 100 mg/kg-day): 15.71 ± 0.74 g/dL
Kidney Weight (male, 100 mg/kg-day): 3.38 g
Kidney/Body Weight (male, 100 mg/kg-day): 0.60%
Kidney/Brain Weight (male, 100 mg/kg-day): 156%
Liver Weight (male, 100 mg/kg-day): 18.32 g
Liver/Body Weight (male, 100 mg/kg-day): 3.24%
Liver/Brain Weight (male, 100 mg/kg-day): 843%
MPV (male, 100 mg/kg-day): 7.22 ± 0.38 fL
PT (male, 100 mg/kg-day): 15.16 s
Total BW change (male, 100 mg/kg-day): 294.89 g
Total Food Consumed (male, 100 mg/kg-day): 2241 g
% BW Gain (male, 200 mg/kg-day): 100.73%
% Diff, % BW Gain (male, 200 mg/kg-day): -11.23%
% Diff, Total BW change (male, 200 mg/kg-day): -14.29%
% Diff, Total Food Consumed (male, 200 mg/kg-day): -8.27%
A/G (male, 200 mg/kg-day): 0.91±0.04 ratio
ALB (male, 200 mg/kg-day): 3.55 ± 0.21 g/dL
ALPi (male, 200 mg/kg-day): 117.5±29.4 U/L
APTT (male, 200 mg/kg-day): 25.80 s
BUN (male, 200 mg/kg-day): 16.5 ± 2.0 mg/dL
CHOL (male, 200 mg/kg-day): 149.1 ± 27.7 mg/dL
GLOB (male, 200 mg/kg-day): 3.92 ± 0.23 g/dL
GLUC (male, 200 mg/kg-day): 163.2 ± 18.4 mg/dL
HCT (male, 200 mg/kg-day): 47.32±1.57%
HGB (male, 200 mg/kg-day): 14.88 ± 0.44 g/dL
Kidney Weight (male, 200 mg/kg-day): 3.60 g
Kidney/Body Weight (male, 200 mg/kg-day): 0.66%
Kidney/Brain Weight (male, 200 mg/kg-day): 168%
Liver Weight (male, 200 mg/kg-day): 20.17 g
Liver/Body Weight (male, 200 mg/kg-day): 3.70%
Liver/Brain Weight (male, 200 mg/kg-day): 944%
MPV (male, 200 mg/kg-day): 7.33 ± 0.31 fL
PT (male, 200 mg/kg-day): 15.32 s
Total BW change (male, 200 mg/kg-day): 279.08 g
Total Food Consumed (male, 200 mg/kg-day): 2179 g
